# Source: patent EP0962138B1, “Pesticidal method” (BASF Agro B.V., Arnhem (NL), Wädenswil-Branch, priority 1998, dated 1999)
# Key:
# [1] = test system: Otiorynchus sulcatus; test: Compost incorporation test, protection of potted plants from weevil larvae (Example 1); type: in vivo; details: Thuya plicata Atrovirens
# Description: In a twenty-replicate test, Compound A was incorporated in compost by mixing a 2% w/w granule with the compost (Klasmann Substrat 2 (Peat based) ) using a small mechanical mixer. Plants of Thuya plicata Atrovirens were potted in the compost and allowed to grow for two months and then about 15 eggs of Otiorynchus sulcatus were added to the soil and covered with a small layer of compost. As a comparison, some compost was untreated and other compost was treated with the standard chlorpyrifos in the form of the commercial product suSCon Green®. After 27 days the soil was reinfested with 15 more eggs. The plant pots were enclosed such that the plants were exposed to light and the adult beetles which emerged could not escape.
# Of the twenty replicates of each test, five were assessed after 6 months and fifteen were assessed after 18 months for numbers of larvae and adults. After 6 months the following results were observed: […]
# [2] = test system: vine weevil; test: Curative drench treatment of infested potted plants (Example 2); type: in vivo; details: after 6 months, Fuchsia triphylla hybrid cv. Koralle
# Description: In 20-replicate tests, Fuchsia triphylla hybrid cv. Koralle was infested with 15 eggs per pot of vine weevil. Compound A in the form of an 80% water dispersible granule (Regent 800 WG) was suspended in water and added to each pot at the indicated rate per surface area of the pot at various dilutions. After 6 months, the trials were assessed. […] Drench Treatments
# [3] = Dose 75 g/m^3 in compost (suSCon Green), after 6 months, five replicates
# [4] = Dose 75 g/m^3 in compost (suSCon Green), after 18 months, fifteen replicates
# [5] = Dose 2.5 g/m^3 in compost, after 6 months, five replicates
# [6] = Dose 2.5 g/m^3 in compost, after 18 months, fifteen replicates
# [7] = Dose 5 g/m^3 in compost, after 6 months, five replicates
# [8] = Dose 5 g/m^3 in compost, after 18 months, fifteen replicates
# [9] = Dose 7.5 g/m^3 in compost, after 6 months, five replicates
# [10] = Dose 7.5 g/m^3 in compost, after 18 months, fifteen replicates
# [11] = Dose 15 g/m^3 in compost, after 6 months, five replicates
# [12] = Dose 15 g/m^3 in compost, after 18 months, fifteen replicates
smiles,measurement,setting,value
"CCOP(=S)(OCC)Oc1nc(Cl)c(Cl)cc1Cl [Chlorpyrifos, chlorpyrifos, reference compound]",% Control,[1]; [3],87%
same,Number per pot,[1]; [3],0.8
same,Total # larvae,[1]; [3],4
same,% Control,[1]; [4],0%
same,% Survival of Plants,[1]; [4],100%
same,Number per pot,[1]; [4],3.1
same,Total # larvae,[1]; [4],47
same,Total Dead Plants,[1]; [4],0
"N#Cc1nn(-c2c(Cl)cc(C(F)(F)F)cc2Cl)c(N)c1[S+]([O-])C(F)(F)F (centres unmarked) [Compound A, 5-amino-1-(2,6-dichloro 4-trifluoromethylphenyl) 4-trifluoromethylsulfinyl-3-cyanopyrazole]",Protection of the plants compared with the commercial standard,[2],protected the plants substantially better than the commercial standard fonofos
same,% Control,[1]; [5],100%
same,Number per pot,[1]; [5],0
same,Total # larvae,[1]; [5],0
same,% Control,[1]; [6],100%
same,% Survival of Plants,[1]; [6],100%
same,Number per pot,[1]; [6],0
same,Total # larvae,[1]; [6],0
same,Total Dead Plants,[1]; [6],0
same,% Control,[1]; [7],100%
same,Number per pot,[1]; [7],0
same,Total # larvae,[1]; [7],0
same,% Control,[1]; [8],100%
same,% Survival of Plants,[1]; [8],100%
same,Number per pot,[1]; [8],0
same,Total # larvae,[1]; [8],0
same,Total Dead Plants,[1]; [8],0
same,% Control,[1]; [9],100%
same,Number per pot,[1]; [9],0
same,Total # larvae,[1]; [9],0
same,% Control,[1]; [10],100%
same,% Survival of Plants,[1]; [10],100%
same,Number per pot,[1]; [10],0
same,Total # larvae,[1]; [10],0
same,Total Dead Plants,[1]; [10],0
same,% Control,[1]; [11],100%
same,Number per pot,[1]; [11],0
same,Total # larvae,[1]; [11],0
same,% Control,[1]; [12],100%
same,% Survival of Plants,[1]; [12],100%
same,Number per pot,[1]; [12],0
same,Total # larvae,[1]; [12],0
same,Total Dead Plants,[1]; [12],0
